Measured values as given in PubChem BioAssay (NCI).
Several values for one entry are separate records, joined by “and”; a condition that tells them apart may be missing. Equal values may be shown once.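 Cells were grown in 96-well plates and exposed to each compound for 48 hours at five concentrations; endpoints were interpolated linearly between bracketing concentrations, or set to the highest concentration if not reached. At the GI50, growth is halved. Definition used: TGI = concentration required for complete inhibition of growth.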

Key:
Assay in all cases: NCI tumour cell line growth inhibition, 48 h
[1] = system: XF 498 CNS
[2] = system: DMS 273 small cell lung
[3] = system: HOP-18 NSCLC
[4] = system: DMS 114 small cell lung
[5] = system: SNB-78 CNS
[6] = system: M19-MEL melanoma
[7] = system: RXF-631 renal
[8] = system: DLD-1 colon
[9] = system: MDA-N
[10] = system: SN12K1 renal
[11] = system: P388/ADR leukemia

| Compound | TGI [1] | TGI [2] | TGI [3] [µM] | TGI [4] | TGI [5] | TGI [6] [µM] | TGI [7] [µM] | TGI [8] | TGI [9] | other results |
| --- | --- | --- | --- | --- | --- | --- | --- | --- | --- | --- |
| Cc1ccc2nc(NC(=O)C(=O)C(C#N)c3nc4ccccc4s3)sc2c1 (stereo unspecified) | 63.9 µM | > 100 µM | > 100 | 70.1 µM | > 100 µM | > 100 | > 100 |  |  |  |
| CCOc1ccccc1N1C(=O)C(=O)C(c2nc3ccccc3o2)C(=O)C1=O |  | > 100 µM | > 100 | > 100 µM | > 100 µM | > 100 | > 100 | > 100 µM |  |  |
| COc1cc(/C=C2/C(=O)N(C(=O)OCC(C)C)C(Cc3cc(OC)c(OC)c(C)c3OC)C(=O)N2Cc2ccccc2)c(OC)c(C)c1OC (stereo unspecified) |  | > 100 µM | > 100 | > 100 µM |  | > 100 | > 100 | > 100 µM |  |  |
| O=[N+]([O-])O.[Cu+2].[NH-]CC[NH-].[NH-]CC[NH-] |  |  |  |  |  |  |  |  | > 10 µM | GI50 [9]: > 10 µM |
| CN1C(=Nc2ccccc2)SC1=Nc1ccccc1 | 73.3 µM | > 100 µM | > 100 | > 100 µM | > 100 µM | 65.2 |  | > 100 µM |  |  |
| CCc1cc(C(=O)OC)cn1C(=N)c1ccc(Cl)cc1 | > 100 µM | > 100 µM | > 100 | > 100 µM | > 100 µM | > 100 |  | > 100 µM |  |  |
| CCN(CC)c1c(C(=O)/C=C/c2ccc(OC)cc2)c(-c2ccccc2)nn(C)c1=O |  | 5.13 µM | 51.7 | 32.3 µM | > 100 µM | > 100 | > 100 | 71.3 µM |  |  |
| COc1ccc2n[se]nc2c1 | > 100 µM | > 100 µM |  | > 100 µM | > 100 µM |  | > 100 | > 100 µM |  |  |
| Cn1cc(C(=O)NCCC(=N)N)cc1NC(=O)C1=[N+](C)C=C(NC(=O)c2cccc(C(=O)NC3=CC(C(=O)Nc4cc(C(=O)NCCC(=N)N)cn4C)=[N+](C)C3)c2)C1 | > 100 µM | > 100 µM | > 100 | > 100 µM |  | > 100 |  | > 100 µM |  |  |
| CCC(C)(CC(C)(C)C(=O)NCC(=O)NC(Cc1ccccc1)C(=O)NC(Cc1ccccc1)C(=O)NCC(=O)NC1CC(OC2CC(O)(C(=O)CO)Cc3c(O)c4c(c(O)c32)C(=O)c2c(OC)cccc2C4=O)OC(C)C1O)C(=O)NCC(C)O (stereo unspecified) |  |  |  |  |  |  |  |  | > 150 µg/mL | GI50 [9]: 120 µg/mL |
| Clc1ccc(C2SCc3nc4ccccc4n32)c(Cl)c1 (stereo unspecified) | 33.6 µM |  | 34.4 | 22.1 µM |  | 28.9 |  | 30.3 µM |  |  |
| O=C(O)CNC(=O)c1ccc(-c2ccccc2)cc1 |  |  |  |  |  |  |  |  | > 100 µM |  |
| CCOc1ccc2c(c1)[n+]([O-])c(-c1ccc(Cl)cc1)c(N)[n+]2[O-] |  | > 100 µM | > 100 | > 100 µM | > 100 µM |  |  | > 100 µM |  |  |
| O=C1c2ccccc2C(O)(O)C1(O)C1(O)C(=O)c2ccccc2C1(O)O (stereo unspecified) |  |  |  |  |  |  |  |  | 48 µM |  |
| CC1CCC(NC(=O)N(CCCl)N=O)CC1 (stereo unspecified) | 43.5 µM and 81.2 µM | 82.3 µM and 74 µM | 62.8 | 40.4 µM and 87.3 µM | 88.7 µM and 110 µM | 98 |  | 47.7 µM and 79.4 µM | 90.1 µM | TGI [10]: 67 µM; GI50 [1]: 16.4 µM; GI50 [8]: 22.3 µM; TGI [11]: 56.8 µM; GI50 [2]: 26.6 µM; GI50 [4]: 19 µM; GI50 [5]: 20.1 µM; GI50 [6]: 53.1 µM |
| Cc1ccc(S(=O)(=O)OC2CSS(=O)CC2OS(=O)(=O)c2ccc(C)cc2)cc1 (stereo unspecified) | 26.6 µM | 35.3 µM | 37.6 | 32.2 µM | 58.9 µM | 30.5 | 30.4 | 23.6 µM |  |  |
| Cc1cccc(C)c1NC(=O)C(C#N)C1=C(Cl)C(=O)c2ccccc2C1=O (stereo unspecified) | 28.9 µM | > 100 µM | 25.3 | 41.8 µM | 56.1 µM | 16.6 | 43 | 30.1 µM | 28.6 µM |  |
| COC(=O)C1(C)CCC(c2ccc(C)cc2)=C(CC(=O)O)C1 (stereo unspecified) |  |  |  |  |  |  |  |  | > 100 µM |  |
| Cc1cc(=O)n(-c2ccccc2C)c(C)n1 |  | > 100 µM | > 100 | > 100 µM | > 100 µM | > 100 | > 100 | > 100 µM |  |  |
| COc1c(C)c2c(c(O)c1C/C=C(\C)CCC(=O)O)C(=O)OC2 |  | > 100 µM | > 100 | 78.3 µM |  | > 100 |  | > 100 µM | > 100 µM |  |
